Reference: ChEMBL document CHEMBL5352488, “Development of novel S-N3-DABO derivatives as potent non-nucleoside reverse transcriptase inhibitors with improved potency and selectivity” (Eur J Med Chem, 2023)

What was measured:
[1] = test system: Human immunodeficiency virus 1; assay: Anti-HIV activity against drug resistant HIV-1 harboring K103N mutant infected in human MT4 cells assessed as inhibition of virus-induced cytopathic effect by MTT assay; type: functional, organism-based; conditions: Human immunodeficiency virus 1, MT4
[2] = test system: Human immunodeficiency virus 1; assay: Anti-HIV activity against wild type HIV-1 IIIB infected in human MT4 cells assessed as inhibition of virus-induced cytopathic effect by MTT assay; type: functional, organism-based; conditions: Human immunodeficiency virus 1, IIIB
[3] = test system: Human immunodeficiency virus 1; assay: Anti-HIV activity against drug resistant HIV-1 harboring Y188L mutant infected in human MT4 cells assessed as inhibition of virus-induced cytopathic effect by MTT assay; type: functional, organism-based; conditions: Human immunodeficiency virus 1, MT4
[4] = Selectivity index, ratio of CC50 for cytotoxicity against human MT4 cells assessed as reduction in cell viability by MTT assay to EC50 for anti-HIV activity against wild type HIV-1 IIIB infected in human MT4 cells assessed as inhibition of virus-induced cytopathic effect by MTT assay; type: toxicity, cell-based; conditions: read-out: Ratio CC50/EC50
[5] = Cytotoxicity against human MT4 cells assessed as reduction in cell viability by MTT assay; type: toxicity, cell-based
[6] = target: Human immunodeficiency virus type 1 reverse transcriptase (Human immunodeficiency virus 1, UniProt Q72547); assay: Inhibition of wild type HIV-1 reverse transcriptase assessed as assessed as inhibition of biotin deoxyuridine triphosphate incorporation into […]
[7] = test system: Human immunodeficiency virus 1; assay: Anti-HIV activity against drug resistant HIV-1 harboring E138K mutant infected in human MT4 cells assessed as inhibition of virus-induced cytopathic effect by MTT assay; type: functional, organism-based; conditions: Human immunodeficiency virus 1, MT4
[8] = test system: Human immunodeficiency virus 1; assay: Anti-HIV activity against drug resistant HIV-1 harboring F227L/V106A mutant infected in human MT4 cells assessed as inhibition of virus-induced cytopathic effect by MTT assay; type: functional, organism-based; conditions: Human immunodeficiency virus 1, MT4
[9] = test system: Human immunodeficiency virus 1; assay: Anti-HIV activity against drug resistant HIV-1 harboring Y181C mutant infected in human MT4 cells assessed as inhibition of virus-induced cytopathic effect by MTT assay; type: functional, organism-based; conditions: Human immunodeficiency virus 1, MT4
[10] = test system: Human immunodeficiency virus 1; assay: Anti-HIV activity against drug resistant HIV-1 harboring L100I mutant infected in human MT4 cells assessed as inhibition of virus-induced cytopathic effect by MTT assay; type: functional, organism-based; conditions: Human immunodeficiency virus 1, MT4
Cytochrome P450 1A2 = target: T1, Cytochrome P450 1A2 (Homo sapiens, UniProt P05177); assay: Inhibition of CYP1A2 in human liver microsomes using phenacetin as substrate measured after 10 mins in presence of NADPH; type: ADME, Microsome
T1 sequence (P05177 whole entry): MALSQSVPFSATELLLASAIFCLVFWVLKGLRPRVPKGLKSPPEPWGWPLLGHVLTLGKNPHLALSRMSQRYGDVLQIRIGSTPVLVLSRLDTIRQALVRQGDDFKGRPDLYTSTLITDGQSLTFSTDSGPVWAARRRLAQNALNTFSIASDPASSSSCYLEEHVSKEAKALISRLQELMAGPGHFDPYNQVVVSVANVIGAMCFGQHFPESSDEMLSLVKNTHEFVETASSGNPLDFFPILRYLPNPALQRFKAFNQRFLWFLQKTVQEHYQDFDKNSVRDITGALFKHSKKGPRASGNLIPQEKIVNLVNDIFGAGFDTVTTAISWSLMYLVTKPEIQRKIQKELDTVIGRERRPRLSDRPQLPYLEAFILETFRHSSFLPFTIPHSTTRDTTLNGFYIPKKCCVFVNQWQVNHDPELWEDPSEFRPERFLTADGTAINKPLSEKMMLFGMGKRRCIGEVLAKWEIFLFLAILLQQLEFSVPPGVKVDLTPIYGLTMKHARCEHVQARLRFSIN

[11] = Acute toxicity in mouse assessed as change in body weight at 1000 mg/kg, po; type: organism-based; conditions: in vivo
Cytochrome P450 3A4 [12] = target: T2, Cytochrome P450 3A4 (Homo sapiens, UniProt P08684); assay: Inhibition of CYP3A4T in human liver microsomes using testosterone as substrate measured after 10 mins in presence of NADPH; type: ADME, Microsome
Cytochrome P450 2C9 = Cytochrome P450 2C9 (Homo sapiens, UniProt P11712); assay: Inhibition of CYP2C9 in human liver microsomes using tolbutamide as substrate measured after 10 mins in presence of NADPH; type: ADME, Microsome
[13] = Acute toxicity in mouse assessed as histopathological changes in brain at 1000 mg/kg, po by Hematoxylin and eosin staining based microscopy; type: organism-based; conditions: in vivo
Cytochrome P450 2D6 = Cytochrome P450 2D6 (Homo sapiens, UniProt P10635); assay: Inhibition of CYP2D6 in human liver microsomes using dextromethorphan as substrate measured after 10 mins in presence of NADPH; type: ADME, Microsome
[14] = Acute toxicity in mouse assessed as histopathological changes in spleen at 1000 mg/kg, po by Hematoxylin and eosin staining based microscopy; type: organism-based; conditions: in vivo
[15] = Acute toxicity in mouse assessed as histopathological changes in liver at 1000 mg/kg, po by Hematoxylin and eosin staining based microscopy; type: organism-based; conditions: in vivo
hERG (KCNH2) = hERG (KCNH2) (Homo sapiens, UniProt Q12809); assay: Inhibition of human ERG expressed in CHO cells at 40 uM by automated patch-clamp electrophysiological assay; type: toxicity, cell-based; conditions: CHO cells that express hERG
[16] = Acute toxicity in mouse assessed as histopathological changes in lung at 1000 mg/kg, po by Hematoxylin and eosin staining based microscopy; type: organism-based; conditions: in vivo
Cytochrome P450 3A4 [17] = target: T2, Cytochrome P450 3A4; assay: Inhibition of CYP3A4M in human liver microsomes using midazolam as substrate measured after 10 mins in presence of NADPH; type: ADME, Microsome
[18] = Acute toxicity in mouse assessed as histopathological changes in heart at 1000 mg/kg, po by Hematoxylin and eosin staining based microscopy; type: organism-based; conditions: in vivo
Cytochrome P450 2C19 = Cytochrome P450 2C19 (Homo sapiens, UniProt P33261); assay: Inhibition of CYP2C19 in human liver microsomes using mephenytoin as substrate measured after 10 mins in presence of NADPH; type: ADME, Microsome
[19] = Acute toxicity in mouse assessed as histopathological changes in kidney at 1000 mg/kg, po by Hematoxylin and eosin staining based microscopy; type: organism-based; conditions: in vivo

T2 sequence (P08684 whole entry): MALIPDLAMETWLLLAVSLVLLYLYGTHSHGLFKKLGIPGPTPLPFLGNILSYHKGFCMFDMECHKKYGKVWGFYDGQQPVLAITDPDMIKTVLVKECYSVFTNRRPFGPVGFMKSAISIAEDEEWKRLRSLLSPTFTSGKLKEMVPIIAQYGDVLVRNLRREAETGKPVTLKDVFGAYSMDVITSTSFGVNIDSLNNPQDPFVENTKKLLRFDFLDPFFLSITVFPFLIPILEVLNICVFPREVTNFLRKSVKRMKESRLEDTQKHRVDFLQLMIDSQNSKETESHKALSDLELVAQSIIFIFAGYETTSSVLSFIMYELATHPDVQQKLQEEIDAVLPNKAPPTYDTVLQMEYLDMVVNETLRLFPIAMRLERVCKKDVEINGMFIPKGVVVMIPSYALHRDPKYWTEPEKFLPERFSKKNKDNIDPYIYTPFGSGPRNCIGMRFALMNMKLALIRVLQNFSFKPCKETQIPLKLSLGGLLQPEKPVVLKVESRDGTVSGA
Sequence of Cytochrome P450 2C19 (P33261 whole entry): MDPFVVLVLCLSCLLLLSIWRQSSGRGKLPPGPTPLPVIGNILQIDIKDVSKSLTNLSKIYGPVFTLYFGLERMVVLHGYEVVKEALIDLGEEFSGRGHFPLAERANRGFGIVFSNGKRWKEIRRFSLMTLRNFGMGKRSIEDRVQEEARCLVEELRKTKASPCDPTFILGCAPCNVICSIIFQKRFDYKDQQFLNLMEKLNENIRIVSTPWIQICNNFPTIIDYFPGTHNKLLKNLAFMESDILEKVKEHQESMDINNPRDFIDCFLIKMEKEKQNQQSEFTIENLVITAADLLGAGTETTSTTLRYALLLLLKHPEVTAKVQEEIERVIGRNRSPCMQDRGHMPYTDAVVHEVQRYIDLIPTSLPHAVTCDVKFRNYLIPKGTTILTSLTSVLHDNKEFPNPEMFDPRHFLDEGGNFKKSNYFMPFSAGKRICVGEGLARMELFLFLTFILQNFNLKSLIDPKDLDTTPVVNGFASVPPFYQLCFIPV
Sequence of Cytochrome P450 2C9 (P11712 whole entry): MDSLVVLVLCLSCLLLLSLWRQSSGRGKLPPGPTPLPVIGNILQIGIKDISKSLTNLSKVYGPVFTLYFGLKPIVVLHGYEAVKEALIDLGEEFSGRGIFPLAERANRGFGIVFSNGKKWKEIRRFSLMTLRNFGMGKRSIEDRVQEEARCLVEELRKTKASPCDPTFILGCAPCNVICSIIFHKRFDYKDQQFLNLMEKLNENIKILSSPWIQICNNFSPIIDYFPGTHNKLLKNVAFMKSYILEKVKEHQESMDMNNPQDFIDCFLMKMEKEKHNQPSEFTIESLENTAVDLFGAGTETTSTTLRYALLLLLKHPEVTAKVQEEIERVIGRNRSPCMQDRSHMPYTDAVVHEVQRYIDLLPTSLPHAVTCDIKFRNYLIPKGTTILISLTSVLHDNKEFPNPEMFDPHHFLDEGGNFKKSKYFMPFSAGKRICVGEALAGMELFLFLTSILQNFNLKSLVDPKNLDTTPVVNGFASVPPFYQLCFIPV
Sequence of hERG (KCNH2) (Q12809 whole entry): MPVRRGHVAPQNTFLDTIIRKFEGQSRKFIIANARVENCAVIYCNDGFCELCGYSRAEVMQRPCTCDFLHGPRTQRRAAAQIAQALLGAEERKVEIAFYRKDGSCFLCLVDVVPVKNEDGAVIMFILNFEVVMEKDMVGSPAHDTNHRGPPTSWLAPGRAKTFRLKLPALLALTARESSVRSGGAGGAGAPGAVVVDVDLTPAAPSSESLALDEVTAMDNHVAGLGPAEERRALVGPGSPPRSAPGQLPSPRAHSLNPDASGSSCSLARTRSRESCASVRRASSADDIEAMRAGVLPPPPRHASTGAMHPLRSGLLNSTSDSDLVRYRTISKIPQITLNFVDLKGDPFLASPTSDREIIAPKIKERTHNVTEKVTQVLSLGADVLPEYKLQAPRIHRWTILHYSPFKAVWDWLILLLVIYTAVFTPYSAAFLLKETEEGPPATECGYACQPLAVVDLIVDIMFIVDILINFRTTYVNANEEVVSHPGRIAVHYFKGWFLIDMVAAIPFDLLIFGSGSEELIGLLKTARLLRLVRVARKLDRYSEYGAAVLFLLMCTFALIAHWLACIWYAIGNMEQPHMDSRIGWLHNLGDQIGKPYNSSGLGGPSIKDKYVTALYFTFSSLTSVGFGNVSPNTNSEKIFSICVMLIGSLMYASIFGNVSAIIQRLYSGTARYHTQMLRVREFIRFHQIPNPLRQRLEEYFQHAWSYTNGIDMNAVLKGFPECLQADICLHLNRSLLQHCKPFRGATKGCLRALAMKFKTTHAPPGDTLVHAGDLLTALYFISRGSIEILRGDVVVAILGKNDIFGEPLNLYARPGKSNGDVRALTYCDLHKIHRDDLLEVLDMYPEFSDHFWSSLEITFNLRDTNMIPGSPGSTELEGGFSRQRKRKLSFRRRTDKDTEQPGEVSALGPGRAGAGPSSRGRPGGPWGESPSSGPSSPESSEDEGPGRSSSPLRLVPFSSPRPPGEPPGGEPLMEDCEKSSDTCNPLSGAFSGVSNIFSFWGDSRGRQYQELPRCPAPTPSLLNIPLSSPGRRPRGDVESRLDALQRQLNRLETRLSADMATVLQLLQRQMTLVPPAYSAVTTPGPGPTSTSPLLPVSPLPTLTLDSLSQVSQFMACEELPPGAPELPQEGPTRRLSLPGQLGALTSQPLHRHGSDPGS
Sequence of Cytochrome P450 2D6 (P10635 whole entry): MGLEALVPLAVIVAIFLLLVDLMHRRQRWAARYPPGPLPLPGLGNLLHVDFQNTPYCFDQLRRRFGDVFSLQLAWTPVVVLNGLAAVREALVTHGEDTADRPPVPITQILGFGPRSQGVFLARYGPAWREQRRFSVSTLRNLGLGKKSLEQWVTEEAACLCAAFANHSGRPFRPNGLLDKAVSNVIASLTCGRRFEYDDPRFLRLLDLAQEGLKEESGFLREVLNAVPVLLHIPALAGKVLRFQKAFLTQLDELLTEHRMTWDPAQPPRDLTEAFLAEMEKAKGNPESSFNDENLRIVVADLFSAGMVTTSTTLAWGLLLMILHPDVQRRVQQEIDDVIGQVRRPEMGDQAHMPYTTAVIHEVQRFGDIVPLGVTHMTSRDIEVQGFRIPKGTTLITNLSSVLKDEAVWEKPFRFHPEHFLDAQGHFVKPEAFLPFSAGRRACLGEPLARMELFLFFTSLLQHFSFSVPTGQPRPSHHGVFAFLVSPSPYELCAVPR

Row | SMILES | EC50 [1] [µM] | EC50 [2] [µM] | EC50 [3] [µM] | selectivity ratio [4] | CC50 [5] [µM] | IC50 [6] [µM] | EC50 [7] [µM] | EC50 [8] [µM] | EC50 [9] [µM] | EC50 [10] [µM] | other results
1 | CCc1c(C(N=[N+]=[N-])c2cc(C)cc(C)c2)nc(SC(C)C)[nH]c1=O (centres undefined) | 4.82 | 0.067 | > 350 | > 5240 | > 350 | 0.1 | 0.41 | 14.3 | 4.68 | 0.97 | –
2 | Cc1cc(C)cc(C(N=[N+]=[N-])c2nc(SC(C)C)[nH]c(=O)c2C)c1 (centres undefined) | 2.51 | 0.053 | 203 | > 6820 | > 364 | 0.08 | 0.26 | 7.88 | 2.28 | 1.05 | IC50 (Cytochrome P450 1A2): > 50 µM; Activity [11]: Non-Toxic; IC50 (Cytochrome P450 3A4 [12]): > 50 µM; IC50 (Cytochrome P450 2C9): 35.8 µM; Activity [13]: Non-Toxic; IC50 (Cytochrome P450 2D6): > 50 µM; Activity [14]: Non-Toxic; Activity [15]: Non-Toxic; inhibition at 40 µM (hERG (KCNH2)): 41.4%; Activity [16]: Non-Toxic; IC50 (Cytochrome P450 3A4 [17]): > 50 µM; Activity [18]: Non-Toxic; IC50 (Cytochrome P450 2C19): 27.1 µM; Activity [19]: Non-Toxic
3 | CCc1c(C(N=[N+]=[N-])c2ccc(C)cc2)nc(SC(C)C)[nH]c1=O (centres undefined) | 3.9 | 0.16 | > 364 | > 2300 | > 364 | 0.17 | 0.45 | 314 | 114 | 0.13 | –
